Assay results reported in patent US4952408A, “Liposome-encapsulated vinca alkaloids and their use in combatting tumors” (priority 1988, dated 1990).
In brackets after ≈: the same amount, converted by molar mass. Read-outs that look alike come from different tables or passages of the source.

Experiments:
L1210 Leukemia cells = test: in vitro cytotoxicity against L1210 leukemia cells (trypan blue exclusion); type: cell-based; settings: Mus musculus; L1210 murine leukemia cells; 24 h treatment at 37° C., counted at 48 and 72 hours
Protocol: L1210 Leukemia cells were grown in suspension in air with 5% CO2 in RPMI Medium 1640 supplemented with 10% fetal calf serum and gentamicin (50 μg/ml). Log phase cells (10 ml) at an innoculum of 1×10^5 cells/ml of medium in 25 cm^2 plastic flasks were treated with either free vincristine or liposomal entrapped vincristine at different doses for 24 hours at 37° C. After drug treatment, cells were transferred to Falcon tubes and centrifuged for 10 minutes at 600 rpm. The supernatant media were discarded and the cell pellet was washed 3 times with RPMI Media 1640. The final cell pellet was resuspended in 10 ml of RPMI media and transferred to 25 cm^2 plastic flasks and incubated at 37° C. in air with 5% CO2 for growth. At 48 and 72 hours, an aliquot of cells from each flask were taken and were counted for viability by trypan blue exclusion under microscope. The number of cells proliferating in each flask were determined with respect to control. FIG. 3 represents the percent survival of cells when treated with free vincristine or vincristine entrapped in liposomes.

[1] = plasma pharmacokinetics of free and liposomal vincristine (radioimmunoassay); type: in vivo, CD2 F1 mice
Protocol: (§1) CD2 F1 mice were administered vincristine as a free drug at a dose of 1 mg kg^-1 and liposomal entrapped vincristine at a dose of 1 mg kg^-1 and 5 mg kg^-1 via a lateral tail vein. At sequential time points, four mice in each treatment group were sacrificed and specific tissues were isolated and assayed for drug levels by radioimmunoassay as adapted in our laboratories.

[2] = tissue drug levels of free and liposomal vincristine (radioimmunoassay); type: in vivo, CD2 F1 mice; settings: for concentration at 5 min / concentration at 0.25 h / concentration at 0.5 h / concentration at 1 h / concentration at 2 h / concentration at 4 h / concentration at 8 h / concentration at 24 h: mouse, iv, 1 mg/kg; for concentration at 0.25 h: 15'; for concentration at 0.5 h: 30'
Protocol: as §1

[3] = total doses in excess of 2 mg; cited from earlier work
L1210 Leukemia = test: antitumor evaluation against L1210 leukemia in mice; type: in vivo, CD2 F1 mice; settings: for % ILS (percentage of increase in life span) / Long Term Survivors (50 days) / Median Survival: single dose
Protocol: The L1210 leukemia was maintained by serial passage i.p. in DBA/2F1 female mice. For antitumor studies, 2×10^5 cells of L1210 leukemia were implanted i.p. in CD2 F1 male mice (22-25 g). […] Each drug treated group and saline treated leukemic control group was composed of eight mice. […] Data are expressed as % of ILS (percentage of increase in life span). Median life spans were calculated from grouped median survival times and % of increase in life was calculated as: [formula] Experiments were terminated on day 50. Mice alive on that day were termed "cures" and were included in the calculation of median survival time of treated mice. The saline treated or blank liposomes treated controls had the median survival of 11 days. Free vincristine at a dose of 2 mg kg^-1 provided a median survival of 14.5 days with a % ILS of 32 with 2/8 long-term survivals. […] In contrast, the doses of vincristine entrapped in liposomes provided a much higher therapeutic response in mice bearing L1210 leukemia. […] In addition, higher doses of vincristine administered in liposomes produced significant therapeutic response with majority of leukemia bearing mice surviving at day 50.
CD2 F1 mice were implanted intraperitoneally with 2 ×
10^5 leukemia cells and drug treatment was given intravenously on day

[4] = lethal toxicity in normal mice after single i.v. injection; type: in vivo, CD2 F1 mice
[5] = tested on: non-Hodgkin's and Hodgkins lymphomas, acute lymphoblastic leukemia, Wilm's tumor, rhabdomyosarcoma, and neuroblastoma; settings: in vivo; cited from earlier work
[6] = brain, brain, 1.0 mg, read-out: vincristine level, brain
[7] = kidney, kidney, 1.0 mg, read-out: vincristine level, kidney
[8] = liver, liver, 1.0 mg, read-out: vincristine level, liver
[9] = lung, lung, 1.0 mg, read-out: vincristine level, lung
[10] = spleen, spleen, 1.0 mg, read-out: vincristine level, spleen

## CC[C@]1(O)C[C@H]2CN(CCc3c([nH]c4ccccc34)[C@@](C(=O)OC)(c3cc4c(cc3OC)N(C=O)[C@H]3[C@@](O)(C(=O)OC)[C@H](OC(C)=O)[C@]5(CC)C=CCN6CC[C@]43[C@@H]65)C2)C1 [free vincristine, vincristine]
L1210 Leukemia cells
  IC50: 4 ng/mL (≈ 4.85 nM)
[1]; i.v.
  apparent volume of distribution: apparent large volume of distribution
  clearance of drug from plasma: much faster clearance of drug from plasma
[1]; mouse, iv, 1 mg/kg, plasma, 1.0 mg, 5', read-out: plasma level
  concentration at 5 min: 630 ng/mL
[1]; mouse, iv, 1 mg/kg, plasma, 1.0 mg, 15', read-out: plasma level
  concentration at 0.25 h: 600 ng/mL
[1]; mouse, iv, 1 mg/kg, plasma, 1.0 mg, 30', read-out: plasma level
  concentration at 0.5 h: 200 ng/mL
[1]; mouse, iv, 1 mg/kg, plasma, 1.0 mg, 1h, read-out: plasma level
  concentration at 1 h: 100 ng/mL
[1]; mouse, iv, 1 mg/kg, plasma, 1.0 mg, 2h, read-out: plasma level
  concentration at 2 h: 50 ng/mL
[1]; mouse, plasma, iv, 1 mg kg^-1 i.v., 5 minutes, read-out: peak plasma level at 5 minutes
  Cmax at 5 min: 620 ng/mL
[2]; brain, 1 or 5 mg kg^-1 liposomal
  levels of drug in brain, free compared with liposomal vincristine: higher than liposomal vincristine
[2]; liver, 1 mg kg^-1, 8 hours
  drug level in liver: undetectable
[2]; lung, 1 mg kg^-1, different periods
  levels in lung, free compared with liposomal vincristine: comparable
[2]; [6]
  concentration at 5 min: 28 ng/g
  concentration at 0.25 h: 21 ng/g
  concentration at 0.5 h: 20 ng/g
  concentration at 1 h: 21 ng/g
  concentration at 4 h: 29 ng/g
  concentration at 8 h: 29 ng/g
  concentration at 24 h: 19 ng/g
[2]; brain, brain, 1.0 mg, 2h, read-out: vincristine level, brain
  concentration at 2 h: 21 ng/g
[2]; [7]
  concentration at 5 min: 65 ng/g
  concentration at 0.25 h: 64 ng/g
  concentration at 0.5 h: 62 ng/g
  concentration at 1 h: 47 ng/g
  concentration at 4 h: 20 ng/g
  concentration at 8 h: 18 ng/g
  concentration at 24 h: 2 ng/g
[2]; kidney, kidney, 1.0 mg, 2h, read-out: vincristine level, kidney
  concentration at 2 h: 47 ng/g
[2]; liver, liver, 1 mg kg^-1, 2 hours, read-out: drug level in liver
  concentration at 2 h: 50 ng/g
[2]; [8]
  concentration at 5 min: 200 ng/g
  concentration at 0.25 h: 161 ng/g
  concentration at 0.5 h: 121 ng/g
  concentration at 1 h: 84 ng/g
  concentration at 4 h: 10 ng/g
[2]; liver, liver, 1.0 mg, 2h, read-out: vincristine level, liver
  concentration at 2 h: 47 ng/g
[2]; [9]
  concentration at 5 min: 80 ng/g
  concentration at 0.25 h: 78 ng/g
  concentration at 0.5 h: 80 ng/g
  concentration at 1 h: 75 ng/g
  concentration at 4 h: 64 ng/g
  concentration at 8 h: 58 ng/g
  concentration at 24 h: 4 ng/g
[2]; lung, lung, 1.0 mg, 2h, read-out: vincristine level, lung
  concentration at 2 h: 77 ng/g
[2]; [10]
  concentration at 5 min: 83 ng/g
  concentration at 0.25 h: 84 ng/g
  concentration at 0.5 h: 72 ng/g
  concentration at 1 h: 86 ng/g
  concentration at 4 h: 112 ng/g
  concentration at 8 h: 61 ng/g
  concentration at 24 h: 43 ng/g
[2]; spleen, spleen, 1.0 mg, 2h, read-out: vincristine level, spleen
  concentration at 2 h: 112 ng/g
[3]
  neurotoxicity: often associated with a progressive and disabling neurotoxicity
L1210 Leukemia; 2.0 mg/kg i.v.
  % ILS (percentage of increase in life span): 32%
  Long Term Survivors (50 days): 2/8
  Median Survival: 14.5 days
L1210 Leukemia; 3 mg kg^-1 i.v.
  death of tumor bearing mice (drug toxicity): All the animals in this group were dead by day 10
L1210 Leukemia; 3.0 mg/kg i.v.
  % ILS (percentage of increase in life span): -32%
  Long Term Survivors (50 days): 0/8
  Median Survival: 7.5 days
[4]; 2 mg kg^-1 i.v., to day 60
  lethality: without any lethality
[4]; mouse, in vivo, iv, 3 mg kg^-1 i.v., read-out: mice dead by day 8
  mortality at 192 h: 90%
[5]
  antitumor activity: substantial activity
